Results as given in patent US7211120B2, “Method for forming a pattern of an organic semiconductor film” (Canon Kabushiki Kaisha, priority 2002, dated 2007).

Key:
Assay type in all cases: physicochemical
[1] = Water-fastness test, recorded article immersed in city water; details: Reference Example printed article; city water 5 minutes
Procedure: (§1) Reddish purple color square patches of 1 cm×1 cm were printed on a recording medium (trade name: PR-101; manufactured by Canon Inc.) using the above two types of ink on an ink-jet printer, trade name: BJ-F 870; manufactured by Canon Inc. The color patches of Example 2 were heat treated at 120° C. for 1 minute for retro-Diels-Alder reaction of the compound 7 and converted into cyan color patch. The resultant color patches of Example 2 and Reference Example were tested for their light-fastness, gas-fastness, water-fastness and moisture-fastness.
The obtained recorded article was immersed in city water for 5 minutes, drawn up from the water and dried, and its change in density before and after the test was determined. • A: Density reduction rate of 1% or less. • B: Density reduction rate of 2 to 4% • C: Density reduction rate of 5% or more (Humidity-fastness)

[2] = Humidity-fastness test, recorded article stored in thermo-hydrostat vessel; details: Reference Example printed article; 30° C., 80% RH, 1 week
Procedure: as §1
The obtained recorded article was stored in a thermo-hydrostat vessel at 30° C., 80% RH for 1 week, drawn from the vessel and dried, and its change in density before and after the test was determined. • A: Density reduction rate of 1% or less • B: Density reduction rate of 2 to 4% • C: Density reduction rate of 5% or more.

[3] = Light-fastness test of printed colour patch with xenon fade meter; details: Reference Example printed article; 70 Kl×, 520 hours, 24° C., 60% RH
Procedure: as §1
Light-exposure-fastness test was conducted with a xenone fade meter in accordance with the following test conditions. This was to test fastness of an image mimicking sunlight entering through a window in a room.
• Irradiation Intensity: 70 Kl×testing duration 520 hours • Temperature/humidity conditions in a testing vessel: 24° C., 60% RH • Filter: soda lime (outer), borosilicate (inner)
The light-fastness was evaluated as follows: • A: Density remaining rate of 90% or more • B: Density remaining rate of 89 to 80% • C: Density remaining rate of 79% or less (Gas-fastness)

[4] = Gas-fastness test of printed colour patch with gas corrosion tester; details: Reference Example printed article; mixed gas, 72 hours, 24° C., 60% RH
Procedure: as §1
Gas-exposure-fastness testing was conducted with a gas corrosion tester under the following test conditions (ANSI/ISA-S71.04-1985). This was to test fastness of an image assuming the effects of various gases in a room.
• Exposing gas composition: H2S: 50 ppb, SO2: 300 ppb, NO2: 1250 ppb, Cl2: 10 ppb, O3: 1200 ppb • Testing duration: 72 hours, Temperature/humidity conditions in a testing vessel: 24° C., 60% RH
The gas-fastness was evaluated as follows: • A: Density remaining rate of 90% or more • B: Density remaining rate of 89 to 80% • C: Density remaining rate of 79% or less (Water-fastness)

C.I. Direct Blue 199 [DBL-199]
Water-fastness [1]: C (Density reduction rate of 5% or more)
Humidity-fastness [2]: B (Density reduction rate of 2 to 4%)
Light-fastness [3]: A (Density remaining rate of 90% or more)
Gas-fastness [4]: C (Density remaining rate of 79% or less)
